Measurements taken from ChEMBL document CHEMBL5126654, “Cyclopiazonic Acid and Okaramine Analogues, Including Chlorinated Compounds, from Chrysosporium undulatum YT-1” (2022).
In brackets after ≈: the same amount, converted by molar mass. Activity calls are given as the source filed them. No cut-off for these calls is given here.

Legend:
[1] = tested on: Bombyx mori; test: Insecticidal activity against third instar larvae of Bombyx mori (silkworm) measured after 24 hrs; format: functional
[2] = tested on: Helicoverpa armigera; test: Insecticidal activity against third instar larvae of Helicoverpa armigera (cotton bollworms) measured after 24 hrs; format: functional
[3] = tested on: Bacillus subtilis; test: Antibacterial activity against Bacillus subtilis measured after 24 hrs by agar diffusion method; format: functional
[4] = tested on: PC12D; test: Neuroprotective activity in rat PC12 cells assessed as reduction in 6-OHDA-induced cell death at 40 uM pretreated for 30 mins followed by 6-OHDA stimulation and measured after 24 hrs by MTT assay; format: functional, cell-based; settings: time 24.5 hrs

Row | Structure (SMILES) | LD50 [1] [mg/kg] | LD50 [2] [mg/kg] | MIC [3] [µg/mL] | Activity [4]
1 | CO[C@@H]1[C@]2(O)c3cc(O)ccc3N3C(C)(C)[C@H](CO)[C@]32N2C(=O)/C3=C/c4c([nH]c5ccccc45)C(C)(C)/C=C\N3C(=O)[C@]12O | > 100 | > 100 | – | –
2 | CO[C@@H]1[C@]2(O)c3cccc(O)c3N3C(C)(C)[C@H](C)[C@]32N2C(=O)/C3=C/c4c([nH]c5cc(Cl)ccc45)C(C)(C)/C=C\N3C(=O)[C@]12O | 7.56 | 4.13 | – | –
3 | C/C(O)=C1\C(=O)[C@@H]2[C@H]3c4c[nH]c5cc(Cl)cc(c45)[C@@H](O)[C@H]3C(C)(C)N2C1=O | – | – | 6.3 (≈ 16.3 µM) | –
4 | CO[C@@H]1[C@]2(O)c3cc(O)ccc3N3C(C)(C)[C@H](CO)[C@]32N2C(=O)/C3=C/c4c([nH]c5cc(Cl)ccc45)C(C)(C)/C=C\N3C(=O)[C@]12O | > 100 | > 100 | – | –
5 | CO[C@@H]1[C@]2(O)c3cc(O)ccc3N3C(C)(C)[C@H](C)[C@]32N2C(=O)/C3=C/c4c([nH]c5ccccc45)C(C)(C)/C=C\N3C(=O)[C@]12O | 0.07 | < 0.01 | – | –
6 | C=C(C)[C@H]1Cc2c(ccc3c2O[C@@H]2COc4cc(OC)c(OC)cc4[C@@H]2C3=O)O1 [ROTENONE] | 37.8 | 5.79 | – | –
7 | CO[C@@H]1[C@]2(O)c3cc(O)ccc3N3C(C)(C)[C@H](C)[C@]32N2C(=O)/C3=C/c4c([nH]c5cc(Cl)ccc45)C(C)(C)/C=C\N3C(=O)[C@]12O | 0.61 | 0.06 | – | –
8 | CC(NCCc1ccccc1)=C1C(=O)[C@@H]2[C@H]3c4c[nH]c5cccc(c45)C[C@H]3C(C)(C)N2C1=O (mixture of isomers) | – | – | – | Active
